Experimental data as given in patent US9988348B1, “Synthesis and antimicrobial use of a trithiocarbonate derivative” (KING SAUD UNIVERSITY, priority 2017, dated 2018).

Legend:
Assay in all cases: disk diffusion assay, inhibition zone
Type in all cases: cell-based
[1] = system: Neisseria meningitides ATCC 1302; details: Neisseria, ATCC1302, N. meningitides, read-out: Inhibition zone diameter of standard antimicrobial agents; for zone of inhibition at 10 µg/disc: 10 μg/disk
[2] = system: Escherichia coli ATCC 25922; details: Escherichia coli, ATCC25922, E. coli, read-out: Inhibition zone diameter of standard antimicrobial agents; for zone of inhibition at 10 µg/disc: 10 μg/disk
Experimental: (§1) To evaluate antimicrobial activity of the compound 4, synthesized in our laboratory as novel anti-bacterial and anti-fungal agents, the inhibition zone diameter (mm) and the minimal inhibitory concentration were determined according to (Andrews 2001; Hudzicki 2009). The test carried out on several clinical microorganisms included Gram positive bacteria (Staphylococcus aureus ATCC and Streptococcus mutans ATCC 35668), Gram negative bacteria (Escherichia coli ATCC 25922, Salmonella typhimurium ATCC 14028 and Neisseria meningitides ATCC 1302); yeasts (Candid albicans ATCC 60193, Cryptococcus neoformans Wild strain and Candida parapsilosus ATCC 22019) and molds (Aspergillus fumigatus AUMC 8794, Penicillum chrysogenum AUMC 9476 and Fusarium sp.)
(§2) The clinical microorganisms were cultivated at least three times on suitable culture medium and incubating conditions before susceptibility test. The concentration of microbial inoculation suspensions in sterile sodium chloride solution (0.89%) were adjusted to 0.65 at 620 nm by spectrophotometer. […]
(§3) After that, the disks were dried at 25° C. under sterile conditions by safety biological cabinet. A Mueller-Hinton agar (MHA) (Scharlau Microbiogy, Spain) and a potato dextrose agar (PDA) (Scharlau, Spain) were used to perform antibacterial and antifungal test respectively. The media were prepared according to manufacturer's guidelines. To prepare one liter of MHA and one liter of PDA, 21 grams of MHA and 39 grams of PDA were dissolved in one liter of sterile distilled water, followed by sterilization at 121° C. for 15 minutes by an autoclave (HL-321, Taiwan). The sterilized media were poured in sterile plastic Petri dishes at 50° C. The plates were allowed to let the medium solidify at room temperature. 0.1 ml of microbial inoculation suspensions were spread on dried surface of medium and were kept at 25° C. for 5-10 minutes. The compound 4 and standard antimicrobial drugs discs (Table 1) were dispensed on the surface of inoculated media. The tested bacteria and fungi were incubated at 37±1° C. for 19-22 hours and at 25±1 for 48-72 hours respectively. After the incubation, the diameter of inhibition zone (millimeter) resulting from the biological activity of compound were recorded.

[3] = system: Salmonella typhimurium ATCC 14028; details: Salmonella enterica, Sa. typhimurium, read-out: Inhibition zone diameter of standard antimicrobial agents; for zone of inhibition at 10 µg/disc: 10 μg/disk
Experimental: as §1, §2, §3

[4] = system: Staphylococcus aureus ATCC; details: Staphylococcus aureus, S. aureus, read-out: Inhibition zone diameter of standard antimicrobial agents; for zone of inhibition at 10 µg/disc: 10 μg/disk
Experimental: as §1, §2, §3

[5] = system: Streptococcus mutans ATCC 35668; details: Streptococcus mutans, ATCC35668, S. mutans, read-out: Inhibition zone diameter of standard antimicrobial agents; for zone of inhibition at 10 µg/disc: 10 μg/disk
Experimental: as §1, §2, §3

[6] = system: Aspergillus fumigatus AUMC 8794; details: Aspergillus fumigatus, AUMC8794; A. fumigatus; 10 μg/disk; read-out: Inhibition zone diameter of standard antimicrobial agents
Experimental: as §1, §2, §3

[7] = system: Candid albicans ATCC 60193; details: Candida albicans, ATCC60193; C. albicans; 10 μg/disk; read-out: Inhibition zone diameter of standard antimicrobial agents
Experimental: as §1, §2, §3

[8] = system: Candida parapsilosus ATCC 22019; details: C. parasilosus; for zone of inhibition at 10 µg/disc: Candida, ATCC22019, 10 μg/disk, read-out: Inhibition zone diameter of standard antimicrobial agents
Experimental: as §1, §2, §3

[9] = system: Cryptococcus neoformans Wild strain; details: for zone of inhibition at 10 µg/disc: Cryptococcus neoformans, C. neoformasn, 10 μg/disk, read-out: Inhibition zone diameter of standard antimicrobial agents
Experimental: as §1, §2, §3

Fusarium sp. = details: Fusarium sp.; 10 μg/disk; read-out: Inhibition zone diameter of standard antimicrobial agents
Experimental: as §1, §2, §3

[10] = system: Penicillum chrysogenum AUMC 9476; details: P. chrysoginum; 10 μg/disk; read-out: Inhibition zone diameter of standard antimicrobial agents
Experimental: as §1, §2, §3

| SMILES | zone of inhibition at 10 µg/disc [1] [mm] | zone of inhibition at 10 µg/disc [2] [mm] | zone of inhibition at 10 µg/disc [3] [mm] | zone of inhibition at 10 µg/disc [4] [mm] | zone of inhibition at 10 µg/disc [5] [mm] | zone of inhibition at 10 µg/disc [6] [mm] | zone of inhibition at 10 µg/disc [7] [mm] | susceptibility of the strain to the standard drug, in words [8] | zone of inhibition at 10 µg/disc [8] [mm] | zone of inhibition at 10 µg/disc [9] [mm] | zone of inhibition at 10 µg/disc (Fusarium sp.) [mm] | zone of inhibition at 10 µg/disc [10] [mm] | other results |
| --- | --- | --- | --- | --- | --- | --- | --- | --- | --- | --- | --- | --- | --- |
| NC[C@H]1O[C@H](O[C@H]2[C@H](O)[C@@H](O[C@H]3O[C@H](CO)[C@@H](O)[C@H](N)[C@H]3O)[C@H](N)C[C@@H]2N)[C@H](N)C[C@@H]1O [Tobramycin] | 21 | 20 | 14 | 14 | 35 |  |  |  |  |  |  |  |  |
| CC(=O)O[C@H]1C[C@@]2(C)[C@@H](C[C@@H](O)[C@H]3[C@@]4(C)CC[C@@H](O)[C@@H](C)[C@@H]4CC[C@@]32C)/C1=C(\CCC=C(C)C)C(=O)O [Fusidic acid] | 20 | 0 | 0 | 23 | 10 |  |  |  |  |  |  |  |  |
| Clc1ccccc1C(c1ccccc1)(c1ccccc1)n1ccnc1 [Canesten] |  |  |  |  |  | 23 | 26 | resistant | 0 | 25 | 15 | 30 |  |
| O=C(N[C@H](CO)[C@H](O)c1ccc([N+](=O)[O-])cc1)C(Cl)Cl [Chloramphenicol] |  |  |  |  |  |  |  |  |  |  |  |  | zone of inhibition at 30 µg/disc ([1]; 30 μg/disk): 34 mm; zone of inhibition at 30 µg/disc ([2]; 30 μg/disk): 40 mm; zone of inhibition at 30 µg/disc ([3]; 30 μg/disk): 30 mm; zone of inhibition at 30 µg/disc ([4]; 30 μg/disk): 30 mm; zone of inhibition at 30 µg/disc ([5]; 30 μg/disk): 20 mm |
| CC[C@H](C)C[C@H](C)CCCCCCCCC(=O)N[C@H]1C[C@@H](O)[C@@H](NCCN)NC(=O)[C@@H]2[C@@H](O)CCN2C(=O)[C@H]([C@H](O)CCN)NC(=O)[C@H]([C@H](O)[C@@H](O)c2ccc(O)cc2)NC(=O)[C@@H]2C[C@@H](O)CN2C(=O)[C@H]([C@@H](C)O)NC1=O [Caspofungin] |  |  |  |  |  | 20 | 20 | resistant | 0 | 0 | 0 | 0 | susceptibility of the strain to the standard drug, in words ([9]; Cr. neoformans strain used in this study): resistance |
